Laboratory results: ChEMBL document CHEMBL4219112, “Rational drug design and synthesis of new α-Santonin derivatives as potential COX-2 inhibitors” (Bioorg Med Chem Lett, 2018)
Activity calls are given as the source filed them. The rule behind the calls is not given here.

Assays:
[1] = target: T1, Prostaglandin G/H synthase 2 (Mus musculus) (UniProt Q05769); experiment: Inhibition of COX-2 in PH-PDT-treated mouse RIF1 cells assessed as suppression of PGE2 production at 500 uM after 24 hrs by spectrophotometric analysis
T1 sequence (whole entry): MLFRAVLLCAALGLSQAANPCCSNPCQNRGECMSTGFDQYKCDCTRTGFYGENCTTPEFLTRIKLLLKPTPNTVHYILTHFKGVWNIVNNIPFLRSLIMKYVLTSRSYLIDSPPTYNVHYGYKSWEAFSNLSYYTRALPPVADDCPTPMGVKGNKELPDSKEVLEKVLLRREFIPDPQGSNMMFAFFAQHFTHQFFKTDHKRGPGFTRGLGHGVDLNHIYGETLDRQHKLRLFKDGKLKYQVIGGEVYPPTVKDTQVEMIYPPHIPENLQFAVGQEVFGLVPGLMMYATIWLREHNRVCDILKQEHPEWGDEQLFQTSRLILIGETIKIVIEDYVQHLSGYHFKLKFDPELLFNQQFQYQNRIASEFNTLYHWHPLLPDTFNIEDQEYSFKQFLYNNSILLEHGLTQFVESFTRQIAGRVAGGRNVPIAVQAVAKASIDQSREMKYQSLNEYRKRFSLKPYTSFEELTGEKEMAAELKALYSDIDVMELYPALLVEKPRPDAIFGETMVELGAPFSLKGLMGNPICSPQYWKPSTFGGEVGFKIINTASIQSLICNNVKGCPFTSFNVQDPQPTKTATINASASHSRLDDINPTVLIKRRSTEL

RIF-1 [2] = experiment: Inhibition of COX2 expression levels in PH-PDT-treated mouse RIF1 cells at 500 uM after 24 hrs by Western blot analysis; assay type: functional, cell-based
RIF-1 [3] = experiment: Cytotoxicity against mouse RIF1 cells at 500 to 1000 uM after 24 hrs; assay type: cell-based; conditions: rif-1, 24 h
RIF-1 [4] = experiment: Cytotoxicity against mouse RIF1 cells at 62.5 to 750 uM after 24 hrs; assay type: cell-based; conditions: rif-1, 24 h
RIF-1 [5] = experiment: Inhibition of COX2 expression levels in PH-PDT-treated mouse RIF1 cells at 750 uM after 24 hrs by Western blot analysis; assay type: functional, cell-based
RIF-1 [6] = experiment: Inhibition of COX2 expression levels in PH-PDT-treated mouse RIF1 cells at 62.5 uM after 24 hrs by Western blot analysis; assay type: functional, cell-based
[7] = target: T1, Prostaglandin G/H synthase 2 (Mus musculus); experiment: Inhibition of COX-2 in PH-PDT-treated mouse RIF1 cells assessed as suppression of PGE2 production at 750 uM after 24 hrs by spectrophotometric analysis
RIF-1 [8] = experiment: Cytotoxicity against mouse RIF1 cells at 50 to 800 uM after 24 hrs; assay type: cell-based; conditions: rif-1, 24 h
RIF-1 [9] = experiment: Inhibition of COX2 expression levels in PH-PDT-treated mouse RIF1 cells at 400 uM after 24 hrs by Western blot analysis; assay type: functional, cell-based
[10] = target: T1, Prostaglandin G/H synthase 2 (Mus musculus); experiment: Inhibition of COX-2 in PH-PDT-treated mouse RIF1 cells assessed as suppression of PGE2 production at 800 uM after 24 hrs by spectrophotometric analysis
[11] = target: T1, Prostaglandin G/H synthase 2 (Mus musculus); experiment: Inhibition of COX-2 in PH-PDT-treated mouse RIF1 cells assessed as suppression of PGE2 production at 200 uM after 24 hrs by spectrophotometric analysis
RIF-1 [12] = experiment: Inhibition of COX2 expression levels in PH-PDT-treated mouse RIF1 cells at 800 uM after 24 hrs by Western blot analysis; assay type: functional, cell-based
[13] = target: T1, Prostaglandin G/H synthase 2 (Mus musculus); experiment: Inhibition of COX-2 in PH-PDT-treated mouse RIF1 cells assessed as suppression of PGE2 production at 400 uM after 24 hrs by spectrophotometric analysis
RIF-1 [14] = experiment: Cytotoxicity against mouse RIF1 cells at 100 to 800 uM after 24 hrs; assay type: cell-based; conditions: rif-1, 24 h
RIF-1 [15] = experiment: Inhibition of COX2 expression levels in PH-PDT-treated mouse RIF1 cells at 250 uM after 24 hrs by Western blot analysis; assay type: functional, cell-based
RIF-1 [16] = experiment: Cytotoxicity against mouse RIF1 cells at 250 to 750 uM after 24 hrs; assay type: cell-based; conditions: rif-1, 24 h
[17] = target: T1, Prostaglandin G/H synthase 2 (Mus musculus); experiment: Inhibition of COX-2 in PH-PDT-treated mouse RIF1 cells assessed as suppression of PGE2 production at 250 uM after 24 hrs by spectrophotometric analysis

CC1=C2[C@@H]3OC(=O)[C@@H](C)[C@@H]3CC[C@@]2(C)C=CC1=O
inhibition [1]: Active
inhibition (RIF-1 [2]): Active
Activity (RIF-1 [3]): Non-Toxic

Cc1cc(OCc2ccccc2)c(C)c2c1CC[C@H]1[C@H](C)C(=O)O[C@@H]21
inhibition [1]: Active
Activity (RIF-1 [4]): Toxic
inhibition (RIF-1 [2]): Active
inhibition (RIF-1 [5]): Active
inhibition (RIF-1 [6]): Active
inhibition [7]: Active

Cc1cc(OCc2ccc(C(F)(F)F)cc2)c(C)c2c1CC[C@H]1[C@H](C)C(=O)O[C@@H]21
Activity (RIF-1 [8]): Non-Toxic
inhibition (RIF-1 [9]): Active

CC(=O)Oc1cc(C)c2c(c1C)[C@@H]1OC(=O)[C@@H](C)[C@@H]1CC2
inhibition [10]: inactive
inhibition [11]: Active
inhibition (RIF-1 [12]): Active
inhibition [13]: Active
inhibition (RIF-1 [9]): inactive
Activity (RIF-1 [14]): Non-Toxic

Cc1cc(O)c(C)c2c1CC[C@H]1[C@H](C)C(=O)O[C@@H]21
inhibition (RIF-1 [15]): inactive
Activity (RIF-1 [16]): Non-Toxic
inhibition (RIF-1 [2]): Active
inhibition [17]: Active
